# Experimental data taken from a melting point compilation (Tetko et al.; mined from patent text by program, amines drawn as free bases though some values may be those of a salt).
# Starred links: 1 amine or outer side, 2 acyl side, 3 side chain; linkers in the order of their positions; H or OH if unused. Non-standard residues stand in square brackets, D forms with d. Residues, ends and D or L forms follow the SMILES beside them. *: point of attachment. Hyp = O=C(O)[C@@H]1C[C@@H](O)CN1; βNA = c1ccc2cc(N*)ccc2c1; 2Abz = Nc1ccccc1C(=O)O; CO = O=C([*:1])[*:2]; Bn = c1ccc(C*)cc1
row,Compound,melting point [°C]
1,COc1ccc2c(c1)CCc1nn(-c3nc4ccccc4s3)c(O)c1-2,182 to 183
2,Nc1cccc(Nc2ncc(-c3cccnc3)s2)c1,162
3,CCCCC(CC)COc1ccc2c(-c3ccc(CBr)cc3)c3cc(OCC(CC)CCCC)ccc3c(-c3ccc(CBr)cc3)c2c1 (stereo not drawn),105 to 107
4,CCN(CC)CCCCC(=O)c1cccc2cc3c(C(=O)CCCCN(CC)CC)cccc3cc12,65 to 67
5,O=P(Cc1ccc2ccccc2c1-c1c(CP(=O)(c2cccc(F)c2)c2cccc(F)c2)ccc2ccccc12)(c1cccc(F)c1)c1cccc(F)c1,280 to 284
6,CCC1C(C)=NN=C(c2ccc(O)c(O)c2)c2cc(OC)c(O)cc21 (stereo not drawn),254 to 255
7,O=S(=O)(CCCl)C1=NN(S(=O)(=O)CCCl)CS1,143
8,CSCc1cnc2ccccc2c1O,196 to 197
9,COc1ccc(C(=O)Nc2ccccc2C(C)(O)c2ccccn2)cc1 (stereo not drawn),127 to 128
10,C=CCN1C2CCC1C1CCC2N1C(c1ccc(C(=O)N2CCCC2)cc1)c1cccc(O)c1 (stereo not drawn),156 to 158
11,COC(=O)c1cccc(CC(=O)Nc2cccc(/C=C/c3nc(C4CCC4)cs3)c2)c1,119 to 120
12,CCc1nn(C2CCCC2)c2cc(C(=O)O)ccc12,153 to 155
13,CCCC(=O)C1=C(O)CC(c2c(C)c(C)c(C)c(C)c2S(C)(=O)=O)CC1=O (stereo not drawn),132
14,CCCC1=C(C(=O)OCC)C(c2ccccc2C)c2c[nH]nc2N1 (stereo not drawn),178
15,Cc1ccc2c(c1)c(C=O)c(Cl)n2C,120 to 121
16,COc1cc(OC)cc(C2CN3CCC2CC3)c1 (stereo not drawn),142 to 145
17,CCOC(=O)C1CC2CCC(=O)N2C1=O (stereo not drawn),65 to 67
18,O=C(Nc1ccc(-n2nc(C(F)(F)F)cc2C(F)(F)F)cc1)c1cc(F)c(F)cc1F,109 to 111
19,Cc1cnc(CS(=O)c2cc3ccccc3[nH]2)cc1N1CCCCC1 (stereo not drawn),178
20,COc1cc(NC(=O)OCCCN2CCC(c3nn(C)c4cc(F)ccc34)CC2)cc(OC)c1OC,85 to 88
21,Cc1nc(-c2ccc(O)cc2)cc(-c2c(Cl)ccc(Cl)c2Cl)c1C#N,191 to 195
22,O=C1C(=O)c2ccccc2C2=C1SCC(CNCc1ccccc1)O2 (stereo not drawn),60 to 62

row,Compound,melting point [°C]
1,CCOc1ccc(-c2nc(-c3ccc(OS(=O)(=O)C(F)(F)F)c(C(=O)OC)c3)cs2)cc1OCC,112 to 113
2,CCCCC1(CC)CSC2=CC=CC3=CNCC32C(c2ccccc2)=N1 (stereo not drawn),145 to 146
3,CC(C)NC1=NS(=O)(=O)c2ccc(Cc3nc(C4CC4)no3)cc2N1,255 to 259
4,Cc1ccc(/C=C/c2ccc(Cl)cc2[N+](=O)[O-])c([N+](=O)[O-])c1,230
5,Cc1c(Cl)ccc(S(=O)(=O)N(CCc2ccccc2)CC(=O)NCC(=O)O)c1Cl,110
6,CCCCOC(=O)C(C)(NC(=O)c1cc([N+](=O)[O-])cc([N+](=O)[O-])c1)C(C)C (stereo not drawn),110 to 113
7,CCn1c(C(F)(F)F)cc(=O)n(-c2cc(C(=O)OC3CCCC3)c(Cl)cc2F)c1=O,90 to 91
8,CC(C(=O)O)c1ccc2c(c1)C(=O)Cc1cc(N)ccc1S2 (stereo not drawn),189 to 191
9,C=C1C(O)C(CO)OC1n1cc(CC)c(=O)[nH]c1=O (stereo not drawn),137 to 139
10,O=C1Nc2ccc(Br)cc2C12CCNCC2,256 to 258
11,COCn1cc2cc(C)c(NC(=O)c3cc(OC)nn3-c3ncccc3Cl)c(C(=O)NC(C)C)c2n1,148
12,CCC(CC)/C(N)=C(\C#N)C(=O)OC(C)C,140
13,C[C@@H](O)CNC(=O)N1CC(Oc2ccc(C(C)(C)C)cc2)C1,104 to 105
14,CC(C)c1csc(C(C)C)c1NC(=S)NC(C)(C)C,168 to 169
15,CC(C)c1cccc(CN2C[C@H](CO)OC2=O)c1,75 to 77
16,Cc1nc(-c2ccc([C@H]3CN(c4nc(-c5ccncn5)cc(=O)n4C)CCO3)cc2)no1,191
17,COc1ccc(CCNc2nc(Cl)ccc2[N+](=O)[O-])cc1OC,132 to 133
18,N#CSc1nc(Cl)ncc1Cl,160 to 162
19,CC1(C)NC(=O)CN1C(=O)CBr,137 to 138
20,COC(=O)c1nc(-c2cc(F)c([Si](C)(C)C)cc2F)c(F)c(N)c1OC,137 to 139
21,COc1ccc(C(=O)C#CC(=O)O)c(OC)c1OC,119 to 121

# Second part, the compound after the results:
row,melting point [°C],Compound
1,96 to 98,COC(=O)C(C)(C)OCc1cc2cc(Cl)ccc2n1S(=O)(=O)c1ccc(OC)cc1
2,78 to 79,CC(C)N(CCN1C(=O)C(=O)c2ccc(Cl)cc21)C(C)C
3,77 to 79,CNc1cnn(-c2cccnc2)c1Br
4,148,CC1C(=O)N(c2ccc(O)cc2)C(=S)N1c1ccc(Oc2ccc(F)cc2)cc1 (stereo not drawn)
5,156,O=C(O)c1ccccc1NC(=O)[C@@H]1CCCN1C(=O)[C@@H]1C[C@@H](OCc2ccccc2)CN1C(=O)Nc1ccc2ccccc2c1 ({βNA-CO}-[Hyp](Bn)-Pro-[2Abz]-OH)
6,110 to 112,CCOC(=O)c1ccc(NC=CS(=O)(=O)F)cc1
7,183,CSc1ccc(-c2nn(Cc3ccc(Cl)cc3Cl)c(=S)cc2-c2ccc(Cl)cc2)cc1
8,114 to 115,CC(C#N)(c1ccccc1)c1cccnn1 (stereo not drawn)
9,198 to 199,CN(C)C(=O)Sc1ccc(C(=O)c2ccc([N+](=O)[O-])cc2)cc1
10,101 to 103,Cc1cccc([N+](=O)[O-])c1C#N
11,87,Cc1ccncc1-n1nc(C)c(CC(=O)OCC2CC2)c1-c1ccccc1
12,102 to 107,O=C(CCCN1CCN(c2cccc(Cl)c2)CC1)N1CCc2ccccc21
13,99 to 101,CC(C)(C)OC(=O)NC1(CCC(=O)O)CC=CO1 (stereo not drawn)
14,76 to 78,CN(CCc1ccc([N+](=O)[O-])cc1)Cc1cc2cc([N+](=O)[O-])ccc2s1
15,207 to 209,CCc1ccc(-n2c(-c3cccnc3)nc(SC)c(C#N)c2=O)cc1
16,233 to 234,CN1CC=C(C(=O)N2c3ccccc3NC(=O)c3ccccc32)CC1
17,95 to 96,CCOC(=O)c1cc2cc(N(C)C)ccc2s1
18,176 to 178,CC(C)(C(=O)O)c1cn2nc(CCCN3CCN(C(c4ccccc4)c4ccccc4)CC3)ccc2n1
19,203 to 204,Cn1ncc(-c2ccc3c(c2)c(C2CCN(CCN4CCNC4=O)CC2)cn3-c2ccc(F)cc2)n1
20,256 to 258,O=CCNc1[nH]c(-c2ccc(F)cc2)nc1-c1ccccc1
21,55 to 56,CCc1nc(-c2ccc(OCCCN3CCN(C)CC3)cc2)no1
22,215 to 220,CCN(CC)C(=O)NC(C)(CC)N=NC(C)(CC)NC(=O)N(CC)CC (stereo not drawn)
23,113 to 114,CC(=O)OC1CC2=CC=C3C4CCC(C(C)CCCC(C)C)C4(C)CCC3C2(C)C(OC(C)=O)C1 (stereo not drawn)
24,122,CCOc1c(C)cc(P(c2cc(C)c(OCC)c(C)c2)c2cc(C)c(OCC)c(C)c2)cc1C
25,57 to 62,Oc1ccc(CC2CC2(Cl)Cl)cc1 (stereo not drawn)
26,170 to 176,COc1c(C)c2c(c(NS(C)(=O)=O)c1C/C=C(\C)CCC(=O)O)C(=O)OC2
27,180 to 182,CC(C)(C)n1cc(-c2ccc(S(=O)c3ccccc3)cc2)c2c(N)ncnc21 (stereo not drawn)
28,280 to 285,COc1cc2c(C3C(=O)Nc4ccccc43)ncnc2cc1OCc1ccccc1 (stereo not drawn)

row,melting point [°C],Compound
1,167 to 170,CCN1CCc2ccc(Nc3ncc(C(F)(F)F)c(Nc4ccc(N5CCOCC5)cc4OC)n3)cc2CC1
2,220 to 221,O=C(N[C@H](Cc1ccc(F)cc1)[C@@H](O)c1ccc(C(F)(F)F)cc1)C1CCCCC1 (racemic)
3,164 to 165,COC(=O)C1=C(N)CCC(C#N)(c2ccc(OC)c(OCC3CC3)c2)C1 (stereo not drawn)
4,323 to 325,C(=Cc1ccc(-c2ccc(C=Cc3ccccc3)cc2)cc1)c1ccccc1
5,128 to 130,COc1ccc2cccc(C(F)CNC(C)=O)c2c1 (stereo not drawn)
6,147 to 148,OCc1cnn(-c2ccccc2)c1-c1ccccc1
7,205 to 213,COc1ccc(Nc2c([N+](=O)[O-])ccc(Cl)c2C(=O)O)cc1
8,210 to 213,CCS(=O)(=O)c1nn2c(-c3ccc(OC)cc3)nnc2c2ccccc12
9,119,O=C(Cc1ccc(Cl)cc1Cl)c1ccc(Cl)cc1
10,230 to 231,CS(=O)(=O)N(CCO)C1CCC(Nc2nccc(-n3nnc4ccccc43)n2)CC1 (stereo not drawn)
11,112 to 114,CN(C)C(=O)Nc1ccc(SCc2nc(Cl)ccc2Cl)cc1
12,206 to 208,CC(C(=O)N1c2ccccc2C(=O)N(C)c2cccnc21)N1CCN(C)CC1 (stereo not drawn)
13,93 to 95,Cc1cn(C(C)C(=O)N(C)C)nc1-c1ccco1 (stereo not drawn)
14,207,Cc1ccc2c(c1)c(N1CCN(C(=O)c3cccs3)CC1)c(C#N)c(=O)n2CCN1CCOCC1
15,142 to 144,O=C(Nc1ccc(-n2nc(C(F)(F)F)cc2C(F)(F)F)cc1)c1ccc(F)c(C(F)(F)F)c1
16,205 to 206,Clc1ccc([C@@H]2CNc3c(ccc4ccccc34)S2)cc1
17,84 to 88,CC(C)(C)OC(=O)NCCON=C(c1ccccc1)c1cc2ccncc2[nH]1
18,268 to 269,O=S1(=O)CCN2C=CC=C(c3ccc(OCC4CCOCC4)cc3)C2=N1
19,239 to 241,O=C(O)CCC(=O)c1ccc(NC(=O)c2cccc(F)c2)cc1
20,110 to 114,COCCOc1cc(/C=C/C(=O)NS(=O)(=O)CCC(C)C)n(Cc2ccc(Cl)cc2Cl)n1
21,210 to 215,O=C(O)c1c[nH]c(Sc2cc(Cl)c(Cl)cc2Cl)c1
22,172,CCCOc1ccc(S(=O)(=O)N2CC(CN(C)C)C2)cc1-c1nc2c([nH]1)c1nncn1c(=O)n2CCC
23,120 to 121,C=Cc1ccc(CC(N)=O)nc1
24,124 to 126,CCOC1CCN(c2nnc(-c3ccc(C)cc3)c(-c3ccc(C)cc3)n2)CC1
25,115 to 117,Cc1ccccc1C(=O)c1ccsc1C(=O)O
26,117 to 118,CCOC(=O)c1cccc2ncc(CN(C)C)n12
27,59 to 60,CC(C)(O)c1cc(C(F)(F)F)cc(C(F)(F)F)c1
